In patent publication US6927215B2, “Heterocyclic fluoroalkenyl thioethers and the use thereof as pesticides (I)” (Bayer Cropscience AG, priority 2000, dated 2005):
One block for each molecule: values may come before it.

Key:
[1] = test system: adults of Ctenocephalides felis; experiment: Test with cat fleas/oral uptake; format: in vivo; conditions: after 28 h
Protocol: Test with Cat Fleas/Oral Uptake
• Test animals: adults of Ctenocephalides felis • Solvent: dimethyl sulphoxide (DMSO)
To produce a suitable formulation, a suitable solution of active compound is prepared from 20 mg of active compound and 1 ml of DMSO. 15 μl of this formulation are added to 3 ml of citrated cattle blood and stirred.
10 unfed adult fleas (Ctenocephalides felis, strain “Georgi”) are placed into a chamber (Ø3.2 cm) whose top and bottom are closed with gauze. A metal cylinder whose underside is covered with parafilm is placed onto the chamber. The cylinder contains 3 ml of blood/active compound formulation which can be taken up by the fleas through the parafilm membrane. Whereas the blood is warmed to 37° C., the temperature in the area of the flea chambers is adjusted to 25° C. Controls are mixed with the same volume of DMSO, without addition of a compound. The determinations are carried out in triplicate.
After 28 h, the mortality in % (=dead fleas) is determined.
Compounds which effect an at least 25% kill of the fleas within 28 h are judged to be effective.

Lucilia cuprina larvae = experiment: Blowfly larvae test (development-inhibitory action); format: in vivo
Protocol: Blowfly Larvae Test (Development-Inhibitory Action)
• Test animals: Lucilia cuprina larvae • Solvent: dimethyl sulphoxide
(§1) 20 mg of active compound are dissolved in 1 ml of dimethyl sulphoxide, more dilute concentrations are prepared by dilution with distilled water.
About 20 Lucilia cuprina larvae are introduced into a test tube which contains about 1 cm^3 of horse meat and 0.5 ml of the preparation of active compound to be tested. After 24 hours and 48 hours, the efficacy of the preparation of active compound is determined. The test tubes are transferred into a beaker whose bottom is covered with sand. After a further 2 days, the test tubes are removed and the pupae are counted.
The efficacy of the preparation of active compound is assessed by the number of flies that have hatched after 1.5 times the period of development of an untreated control. 100% means that no flies have hatched; 0% means that all flies have hatched normally.

logP (pH2) = format: physicochemical
[2] = test system: Trichinella spiralis larvae; experiment: Trichinella spiralis in-vitro; format: cell-based; design: key: 0 means no activity; 1 means weak activity; 2 means good activity; 3 means full activity; conditions: 5 days at 19° C.
Protocol: Trichinella spiralis In-vitro
• Test animals: Trichinella spiralis larvae • Solvent: dimethyl sulphoxide
Trichinella spiralis larvae are isolated from skeletal muscles and subcutaneous muscles of SPF/CFW1 mice and collected in aqueous 0.9% NaCl containing 20 μg of sisomycin/ml. Per determination, 20 larvae are incubated in 2 ml of a nutrient solution (20 g of Bacto Casitone/l, 10 g of yeast extract/l, 5 g of glucose/l, 0.8 g of KH2PO4/l, 0.8 g of K2HPO4; […] of sisomycin/ml and 1 μg of Canesten/ml; pH=7.2).
The incubation and the determination have been described in Martin et al., Pesticide Science (1996) 48, 343-349. 10 mg of the test compound are dissolved in 0.5 ml of the stated solvent, and such an amount of the resulting solution is added to the incubation medium that the desired concentration is reached. The controls contain only the solvent.
After an incubation time of 5 days at a temperature of 19° C., the experiment is terminated. The anthelmintic activity of a substance is categorized into 4 stages. 0 means no activity, 1 means weak activity, 2 means good activity and 3 means full activity (<50%, 50-75%, >75%, 100% of the larvae dead).

[3] = test system: Boophilus microplus resistant (SP-resistant Parkhurst strain); experiment: Test with Boophilus microplus resistant (SP-resistant Parkhurst strain), injection, oviposition of fertile eggs; format: in vivo
Protocol: (§2) Test with Boophilus Microplus Resistant (SP—Resistant Parkhurst Strain)
(§3) • Test animals: adult females which have sucked themselves full • Solvent: dimethyl sulphoxide
20 mg of active compound are dissolved in 1 ml of dimethyl sulphoxide, more dilute concentrations are prepared by dilution in the same solvent.
The test is carried out in 5 replications. 1 μl of the solutions is injected into the abdomen, and the animals are transferred into dishes and kept in a climatized room. After 7 days, the activity is checked by examination for oviposition of fertile eggs. Eggs whose fertility is not visible from the outside are stored in glass tubes in a controlled-environment cabinet until the larvae have hatched. An activity of 100% means that no tick has produced any fertile eggs.

[4] = test system: greenhouse red spider mite (Tetranychus urticae); experiment: Tetranychus test (OP-resistant/dip treatment); format: in vivo; conditions: active compound concentration 0.1%; after 7 days
Protocol: Tetranychus Test (OP-Resistant/Dip Treatment)
(§4) • Solvent: 30 parts by weight of dimethylformamide • Emulsifier: 1 part by weight of alkylaryl polyglycol ether
(§5) To produce a suitable preparation of active compound, 1 part by weight of active compound is mixed with the stated amounts of solvent and emulsifier, and the concentrate is diluted with emulsifier-containing water to the desired concentration.
Bean plants (Phaseolus vulgaris) which are heavily infested by all stages of the greenhouse red spider mite (Tetranychus urticae) are dipped into a preparation of active compound of the desired concentration.
After the desired period of time, the effect in % is determined. 100% means that all spider mites have been killed; 0% means that none of the spider mites have been killed.

[5] = test system: Boophilus microplus resistant (SP-resistant Parkhurst strain); experiment: Test with Boophilus microplus resistant (SP-resistant Parkhurst strain), dipping; format: in vivo; conditions: active compound concentration 100 ppm; dipped for 1 minute
Protocol: as §2, §3, §1
10 adult Boophilus microplus res. are dipped for 1 minute into the preparation of active compound to be tested. The animals are transferred into plastic beakers and kept in a climatized room, and the kill rate is then determined.
100% means that all ticks have been killed; 0% means that none of the ticks have been killed.

[6] = test system: adult Musca domestica, Reichswald strain (OP, SP, carbamate-resistant); experiment: Test with flies (Musca domestica); format: in vivo; conditions: active compound concentration 100 ppm
Protocol: Test with Flies (Musca domestica)
• Test animals: adult Musca domestics, Reichswald strain (OP, SP, carbamate-resistant) • Solvent: dimethyl sulphoxide
as §1
2 ml of this active compound preparation are pipetted onto filter paper discs (Ø9.5 cm) in petri dishes of corresponding dimensions. After the filter discs have been dried, 25 test animals are transferred into the petri dishes, which are then covered.
After 1, 3, 5, 24 and 48 hours, the activity of the active compound preparation is determined. 100% means that all flies have been killed; 0% means that none of the flies have been killed.

[7] = test system: larvae of the mustard beetle (Phaedon cochleariae); experiment: Phaedon larvae test; format: in vivo; conditions: active compound concentration 0.1%; after 7 days
Protocol: as §4, §5
Cabbage leaves (Brassica oleracea) are treated by being dipped into the preparation of active compound of the desired concentration and are populated with larvae of the mustard beetle (Phaedon cochleariae) while the leaves are still moist.
After the desired period of time, the kill in % is determined. 100% means that all beetle larvae have been killed; 0% means that none of the beetle larvae have been killed.

[8] = test system: peach aphid (Myzus persicae); experiment: Myzus test; format: in vivo; conditions: active compound concentration 0.1%; after 6 days
Protocol: as §4, §5
Cabbage leaves (Brassica oleracea) which are heavily infested by the peach aphid (Myzus persicae) are treated by being dipped into the preparation of active compound of the desired concentration.
After the desired period of time, the kill in % is determined. 100% means that all aphids have been killed; 0% means that none of the aphids have been killed.

[9] = test system: Meloidogyne incognita egg/larvae; experiment: Meloidogyne test; format: in vivo; conditions: active compound concentration 20 ppm; lettuce
Protocol: • Solvent: 8 parts by weight of acetone • Emulsifier: 1 part by weight of alkylaryl polyglycol ether
To produce a suitable preparation of active compound, 1 part by weight of active compound is mixed with the stated amounts of solvent and emulsifier, and the concentrate is diluted with water to the desired concentration.
Containers are filled with sand, solution of active compound, Meloidogyne incognita egg/larvae suspension and lettuce seeds. The lettuce seeds germinate and the plants develop. On the roots, galls are formed.
After the desired period of time, the nematicidal action is determined in % using gall formation as a measure. 100% means that no galls were found; 0% means that the number of galls on the treated plants corresponds to that of the untreated control.

[10] = test system: caterpillars of the army worm (Spodoptera frugiperda); experiment: Spodoptera frugiperda test; format: in vivo; conditions: active compound concentration 0.1%; after 7 days
Protocol: Spodoptera frugiperda Test
as §4, §5
Cabbage leaves (Brassica oleracea) are treated by being dipped into the preparation of active compound of the desired concentration and are populated with caterpillars of the army worm (Spodoptera frugiperda) while the leaves are still moist.
After the desired period of time, the kill in % is determined. 100% means that all caterpillars have been killed; 0% means that none of the caterpillars have been killed.

[11] = active compound concentration 20 ppm
[12] = active compound concentration 100 ppm
[13] = 0.8 μg per animal, injection, after 7 days
[14] = 4 μg per animal, injection, after 7 days
[15] = 20 μg per animal, injection, after 7 days
[16] = active compound concentration 4 ppm, injection, after 7 days
[17] = active compound concentration 20 ppm, injection, after 7 days

Structure (SMILES): CC1SC(SCCCCC=C(F)F)=NS1(=O)=O (racemic) [Example 10]
- kill (mortality) [1, 11]: 83%
- kill (mortality) [1, 12]: 95%
- kill (no flies hatched) (Lucilia cuprina larvae; [12]): 100%
- logP (pH2) (logP (pH2)): 3.31
- anthelmintic activity class (larvae dead) [2, 12]: no activity
- kill (no fertile eggs) [3, 13]: 100%
- kill (no fertile eggs) [3, 14]: 100%
- kill (no fertile eggs) [3, 15]: 100%
- kill (no fertile eggs) [3, 12]: 100%

Structure (SMILES): O=S1(=O)CCSC(SCCC=C(F)F)=N1 [Example 11]
- anthelmintic activity class (larvae dead) [2, 12]: no activity
- kill (no fertile eggs) [3, 13]: 100%
- kill (no fertile eggs) [3, 14]: 100%
- kill (no fertile eggs) [3, 15]: 100%

Structure (SMILES): O=S1(=O)CCCSC(SCCC(F)=C(F)F)=N1 [Example 13]
- kill (no fertile eggs) [3, 13]: 100%
- kill (no fertile eggs) [3, 14]: 100%
- kill (no fertile eggs) [3, 15]: 100%

Structure (SMILES): O=S1(=O)CSC(SCCCCC=C(F)F)=N1 [Example 4]
- kill [4]: 100%
- kill [5]: 100%
- kill [6]: 40%
- kill (mortality) [1, 12]: 100%
- kill [7]: 100%
- logP (pH2) (logP (pH2)): 2.99
- anthelmintic activity class (larvae dead) [2, 12]: no activity
- kill [8]: 100%
- kill (no fertile eggs) [3, 16]: 100%
- kill (no fertile eggs) [3, 17]: 100%

- melting point: 50 °C
Structure (SMILES): O=S1(=O)CSC(SCCC(F)=C(F)F)=N1 [Example 1, 5-(4,4,3-trifluorobutenylthio)-1,3,4-dithiazoline 3,3-dioxide]
- nematicidal action (activity) using gall formation as a measure [9]: 100%
- kill (no flies hatched) (Lucilia cuprina larvae; [11]): 100%
- kill (no flies hatched) (Lucilia cuprina larvae; [12]): 100%
- kill (no fertile eggs) [3, 16]: 100%
- kill (no fertile eggs) [3, 17]: 100%

Structure (SMILES): CC1SC(SCCCCC(F)=C(F)F)=NS1(=O)=O (racemic) [Example 9]
- logP (pH2) (logP (pH2)): 3.24

Structure (SMILES): CC1SC(SCCC=C(F)F)=NS1(=O)=O (racemic) [Example 8]
- kill (mortality) [1, 11]: 79%
- kill (mortality) [1, 12]: 91%
- kill (no flies hatched) (Lucilia cuprina larvae; [12]): 100%
- anthelmintic activity class (larvae dead) [2, 12]: no activity
- kill (no fertile eggs) [3, 13]: 100%
- kill (no fertile eggs) [3, 14]: 100%
- kill (no fertile eggs) [3, 15]: 100%
- kill (no fertile eggs) [3, 12]: 100%

Structure (SMILES): O=S1(=O)CSC(SCCC=C(F)F)=N1 [Example 2]
- kill [5]: 90%
- kill [6]: 60%
- kill (mortality) [1, 12]: 100%
- nematicidal action (activity) using gall formation as a measure [9]: 100%
- kill [10]: 100%
- kill [7]: 100%
- logP (pH2) (logP (pH2)): 2.24
- kill [8]: 100%
- kill (no fertile eggs) [3, 16]: 100%
- kill (no fertile eggs) [3, 17]: 100%

Structure (SMILES): O=S1(=O)CSC(SCCCCC(F)=C(F)F)=N1 [Example 3]
- kill (no flies hatched) (Lucilia cuprina larvae; [11]): 100%
- kill (no flies hatched) (Lucilia cuprina larvae; [12]): 100%
- logP (pH2) (logP (pH2)): 2.93
- anthelmintic activity class (larvae dead) ([2]; active compound concentration 10 ppm): weak activity (1 means weak activity)
- kill (no fertile eggs) [3, 16]: 100%
- kill (no fertile eggs) [3, 17]: 100%

Structure (SMILES): O=S1(=O)CCSC(SCCCCC=C(F)F)=N1 [Example 6]
- kill (mortality) [1, 11]: 73%
- kill (mortality) [1, 12]: 95%
- kill (no flies hatched) (Lucilia cuprina larvae; [12]): 100%
- anthelmintic activity class (larvae dead) [2, 12]: no activity
- kill (no fertile eggs) [3, 13]: 100%
- kill (no fertile eggs) [3, 14]: 100%
- kill (no fertile eggs) [3, 15]: 100%
- kill (no fertile eggs) [3, 12]: 100%

Structure (SMILES): O=S1(=O)CCCSC(SCCCCC=C(F)F)=N1 [Example 16]
- kill (mortality) [1, 11]: 89%
- kill (mortality) [1, 12]: 91%
- anthelmintic activity class (larvae dead) [2, 12]: no activity
- kill (no fertile eggs) [3, 13]: 100%
- kill (no fertile eggs) [3, 14]: 100%
- kill (no fertile eggs) [3, 15]: 100%
- kill (no fertile eggs) [3, 12]: 100%
